Legend:
[1] = tested on: stented coronary arteries (in-stent restenosis); assay: One-month pig studies, histomorphometric analysis; format: in vivo, Juvenile domestic swine; settings: 1-month F/U
Experimental: (§1) No other antiplatelet agents or anticoagulants were given.
(§2) Angiograms were recorded immediately before stent implantation, immediately after stent implantation and at 1 month follow-up. Immediately after the follow-up angiography, the hearts were excised and the coronary vasculature was perfusion fixed at physiologic pressure. The vessels were then processed to obtain histologic cross sections for morphometric analysis from proximal, middle and distal locations within each stent.
(§3) Computer assisted quantitative coronary angiography (QCA) analysis and histomorphometric analysis were performed on each stented artery. Qualitative histopathologic analysis was also performed, with each artery evaluated for both injury and inflammation.

[2] = tested on: porcine coronary in-stent restenosis model; assay: Slow-release paclitaxel coated GR II stents versus control; format: in vivo; settings: 175-200 μg total drug
Excerpt: Furthermore, the coating itself appears biocompatible.

[3] = tested on: stented coronary arteries (in-stent restenosis); assay: One-month pig studies, quantitative coronary angiography (QCA); format: in vivo, Juvenile domestic swine; settings: 1 month
Experimental: as §1, §2, §3

[4] = tested on: pigs with stented coronary arteries; assay: One-month pig studies, premature deaths and safety
Excerpt: (§4) Juvenile domestic swine received one stent in the left anterior descending coronary artery (LAD) and/or one stent in the left circumflex (LCX) or right coronary arteries (RCA). To account for differences in vessel diameter prior to stenting, the deployment pressure for each stent was adjusted to achieve a balloon-to-artery ratio (BAR) of approximately 1.1-1.2. The pigs were followed for 1 month after stent implantation.
(§5) The pigs were fed a standard high fiber diet without lipid or cholesterol supplementation. For antiplatelet effect, each pig was administered approximately 325 mg aspirin and 250 mg ticlopidine daily, starting at least 2 days prior to surgery and continuing until the end of the study. Each pig was also administered approximately 10,000 units heparin during stent implantation and approximately 10,000 units heparin during follow-up angiography. No other antiplatelet agents or anticoagulants were given.

in-stent restenosis = assay: Fast-release low-dose and high-dose paclitaxel-coated stents versus control; format: in vivo, porcine
[5] = tested on: stented coronary arteries; assay: One-month pig studies, qualitative histopathologic analysis; format: in vivo, Juvenile domestic swine
Experimental: as §1, §2, §3

[6] = tested on: pigs with stented coronary arteries; settings: in vivo
Excerpt: as §4, §5

[7] = In-vitro flow system (10 ml/min, 1% BSA in PBS): antibody remaining on stent; format: physicochemical; settings: after approximately 10 days perfusion
Excerpt: In still another aspect of the present invention as depicted in FIG. 11, coating layer 16 can be considered an adsorbent layer and/or an absorbent layer in which a bioactive material is attached thereto. In one particular example, device 10 is a stainless steel GR II™ stent in which the stainless steel base material 14 of structure 12 is coated with a polymer and, in particular, parylene. This adsorbent polymer layer 16 of parylene is approximately 230,000 Å thick. Bioactive material layer 18 of the antiplatelet GP IIb/IIIa antibody (AZ1) was passively loaded on adsorbent polymer layer 16. The polymer coated stainless steel stents were immersed for approximately 24 hours in a buffered aqueous solution of AZ1 antibody (1 mg/ml, pH=7.2) at 37° C. AZ1 is a monoclonal anti-rabbit platelet glycoprotein (GP) IIb/IIIa antibody.
In another example, c7E3 Fab as bioactive material layer 18 is attached to polymer coating layer 16. Bioactive material c7E3 Fab is a chimeric monoclonal antibody that acts upon the […] integrin on platelets to inhibit their aggregation. This antibody or receptor blocker can be used in humans intravenously to prevent thrombosis during coronary angioplasty. This receptor blocker is also known as ReoPro™ available from Eli Lilly, Indianapolis, Ind. […]

[8] = 400 μg paclitaxel+parylene N stents

In the case of CC(=O)O[C@H]1C(=O)[C@@]2(C)[C@H]([C@H](OC(=O)c3ccccc3)[C@]3(O)C[C@H](OC(=O)[C@H](O)[C@@H](NC(=O)c4ccccc4)c4ccccc4)C(C)=C1C3(C)C)[C@]1(OC(C)=O)CO[C@@H]1C[C@@H]2O [Paclitaxel, paclitaxel], the “Lumen Diameter” value ([1]; 5 μg paclitaxel on stent) is reported as 1.77 ± 0.34 mm, the “Neointimal Thickness” value ([1]; 5 μg paclitaxel on stent) is reported as 0.31 ± 0.20 mm and the “Outer Diameter” value ([1]; 5 μg paclitaxel on stent) is reported as 2.73 ± 0.28 mm. The “Wall Thickness” value ([1]; 5 μg paclitaxel on stent) was 0.48 ± 0.23 mm, the “Lumen Diameter” value ([1]; 15 μg paclitaxel on stent) was 1.87 ± 0.37 mm and the “Neointimal Thickness” value ([1]; 15 μg paclitaxel on stent) was 0.29 ± 0.19 mm. The “Outer Diameter” value ([1]; 15 μg paclitaxel on stent) was 2.41 ± 0.90 mm, the “Wall Thickness” value ([1]; 15 μg paclitaxel on stent) was 0.46 ± 0.22 mm and the “Lumen Diameter” value ([1]; 35 μg paclitaxel on stent) was 2.12 ± 0.52 mm. The “Neointimal Thickness” value ([1]; 35 μg paclitaxel on stent) was 0.19 ± 0.16 mm, the “Outer Diameter” value ([1]; 35 μg paclitaxel on stent) was 2.78 ± 0.32 mm and the “Wall Thickness” value ([1]; 35 μg paclitaxel on stent) was 0.33 ± 0.17 mm. The “Lumen Diameter” value ([1]; 85 μg paclitaxel on stent) was 2.40 ± 0.31 mm, the “Neointimal Thickness” value ([1]; 85 μg paclitaxel on stent) was 0.15 ± 0.08 mm and the “Outer Diameter” value ([1]; 85 μg paclitaxel on stent) was 2.96 ± 0.31 mm. The “Wall Thickness” value ([1]; 85 μg paclitaxel on stent) was 0.28 ± 0.10 mm, the “Lumen Diameter” value ([1]; 400 μg paclitaxel + parylene N) was 2.58 ± 0.19 mm and the “Neointimal Thickness” value ([1]; 400 μg paclitaxel + parylene N) was 0.12 ± 0.06 mm. The “Outer Diameter” value ([1]; 400 μg paclitaxel + parylene N) was 3.06 ± 0.17 mm, the “Wall Thickness” value ([1]; 400 μg paclitaxel + parylene N) was 0.24 ± 0.07 mm and the “in-stent restenosis compared with controls” value [2] was “significantly reduced”. For the same molecule, the “Late Loss” value ([3]; 5 μg paclitaxel on stent) was 17.9 ± 20.3%, the “MLD at F/U” value ([3]; 5 μg paclitaxel on stent) was 1.74 ± 0.45 mm and the “Mean Diameter at Follow-up” value ([3]; 5 μg paclitaxel on stent) was 2.23 ± 0.51 mm. The “Late Loss” value ([3]; 15 μg paclitaxel on stent) was 20.1 ± 19.9%, the “MLD at F/U” value ([3]; 15 μg paclitaxel on stent) was 1.90 ± 0.38 mm and the “Mean Diameter at Follow-up” value ([3]; 15 μg paclitaxel on stent) was 2.15 ± 0.43 mm. The “Late Loss” value ([3]; 35 μg paclitaxel on stent) was 2.6 ± 7.5%, the “MLD at F/U” value ([3]; 35 μg paclitaxel on stent) was 2.42 ± 0.25 mm and the “Mean Diameter at Follow-up” value ([3]; 35 μg paclitaxel on stent) was 2.62 ± 0.21 mm. For the same molecule, the “Late Loss” value ([3]; 85 μg paclitaxel on stent) was 1.6 ± 8.1%, the “MLD at F/U” value ([3]; 85 μg paclitaxel on stent) was 2.61 ± 0.15 mm and the “Mean Diameter at Follow-up” value ([3]; 85 μg paclitaxel on stent) was 2.77 ± 0.22 mm. For the same molecule, the “Late Loss” value ([3]; 400 μg paclitaxel + parylene N) was 0.32 ± 7.1%, the “MLD at F/U” value ([3]; 400 μg paclitaxel + parylene N) was 2.75 ± 0.17 mm and the “Mean Diameter at Follow-up” value ([3]; 400 μg paclitaxel + parylene N) was 2.92 ± 0.22 mm. For the same molecule, the “Premature Deaths” value ([4]; 5 μg paclitaxel on stent) was “One pig (stents in LAD &”, the “Premature Deaths” value ([4]; 5 μg paclitaxel on stent, listed as paclitaxel) was “One pig” and the “Premature Deaths” value ([4]; 15 μg paclitaxel on stent) was “One pig (stents in LAD &”. For the same molecule, the “Premature Deaths” value ([4]; 15 μg paclitaxel on stent, listed as paclitaxel) was “One pig”, the “Premature Deaths” value ([4]; 35 μg paclitaxel on stent) was “None” and the “Premature Deaths” value ([4]; 85 μg paclitaxel on stent) was “None”. The “Premature Deaths” value ([4]; 400 μg paclitaxel + parylene N) was “None”, the “Area Stenosis” value (in-stent restenosis; Low-Dose) was 19.3 ± 9.45 % and the “in-stent restenosis compared to control stents” value (in-stent restenosis; high-dose) was “significantly reduced”. For the same molecule, the “in-stent restenosis compared to control stents” value (in-stent restenosis; low-dose) was “significantly reduced”, the “histologic sections with occasional small patches of luminal fibrin” value (shortened to “histologic sections … of luminal fibrin”) ([5]; 5 μg paclitaxel stents) was “none” and the “histologic sections with vessel wall hypocellularity and hyalinization” value ([5]; 5 μg paclitaxel stents) was “approximately 28%”. The “histologic sections … of luminal fibrin” value ([5]; 15 μg paclitaxel stents) was “none”, the “histologic sections with vessel wall hypocellularity and hyalinization” value ([5]; 15 μg paclitaxel stents) was “approximately 67%” and the “histologic sections … of luminal fibrin” value ([5]; 35 μg paclitaxel stents) was “approximately 50%”. The “histologic sections with vessel wall hypocellularity and hyalinization” value ([5]; 35 μg paclitaxel stents) was “over 80%”, the “histologic sections … of luminal fibrin” value ([5]; 85 μg paclitaxel stents) was “approximately 50%” and the “histologic sections with vessel wall hypocellularity and hyalinization” value ([5]; 85 μg paclitaxel stents) was “over 80%”. The “histologic sections … of luminal fibrin” value [5, 8] was “approximately 50%”, the “histologic sections with vessel wall hypocellularity and hyalinization” value [5, 8] was “over 80%” and the “safety problems related to the stents” value [6] was “no safety problems”.

In the case of “c7E3 Fab: chimeric monoclonal antibody acting on platelet GP IIb/IIIa integrin to inhibit aggregation”, the “loaded antibody remaining on the stent” value [7] is reported as “approximately half”.

— patent publication US6730064B2, “Coated implantable medical device” (Cook Incorporated, priority 1998, dated 2004)
